“And” between values parts separate entries of the source, which are not always exact repeats. Equal entries are not always repeated. Where two headings read alike, the source gives them in different places.
Columns and labels:
[1] = tested on: weaned piglets (pigs of Rattlerow Seghers origin); assay type: in vivo; parameters: dG / End BW: unit not given here
Text: The setup of the experiments described below is to assess the influence of DMG on the performance in model species for pigs: mortality, feed conversion ratio (FCR), daily growth (dG), body weight (BW).
To examine all the effects associated with the supplementation of dimethylglycine (DMG) in pig feed, a test was setup with pigs of Rattlerow Seghers origin as model species. In this feeding trial 60 weaned piglets of even sex distribution were kept for 42 days. Teeth of piglets were clipped and male piglets were neutered during the first week after birth. At the beginning of the test the piglets were ad random divided per sex in 20 pens with 3 piglets per pen, reckoning even weight distribution at pen level. The piglets were fed with one type of feed from the first day on till the end of the test period. The type of feed was attributed on a random basis to the different housings. The control feed was based on a commercial piglet feed enriched with 5% corn oil to increase the oxidative stress in the feed. The feed had the following composition: 91% dry matter, 5% ash, 18% crude protein, 8% crude fat, 4% crude fibre and 56% other carbohydrate. It has a (calculated) metabolizable energy value of about 13.9 MJ/kg.
In the second type of feed 500mg of DMG was added per kilogram to the same composition of feed as described for the control feed. Over the entire test period, the pigs consumed on average about 290 mg DMG per piglet per day. The housing of the piglets consisted out of slatted floor pig pens of 1.05 m×1.7 m with a total surface of 1.785 m^2. Feed and water were ad libitum available at all times.
Each piglet was weighted after overnight fasts at 4 times, namely at days 0, 14, 29 and 42. The daily growth for the total growth period (dG) as well as daily growth during the three periods (between the start and the fourteenth day (dGI), between the fourteenth and the twenty-ninth day (dGII) and between the twenty-ninth day and the forty-second day (dGIII)) was calculated for each animal. The feed intake for each pen was also measured during these periods. The feed conversion ratio was calculated for each of the pens for both the growth period excluding the first two weeks (FRCII+III) and for the total growth period (FRC). This feed conversion ratio was calculated by dividing the total feed consumption by the weight gain of the piglets during the entire experiment.

[2] = tested on: growing broilers; details: DMG supplementation; cited from earlier work
[3] = tested on: male grower-finisher pigs exposed to mycoplasmal infections; details: cited from earlier work
[4] = tested on: broilers; details: diet supplemented with pangamic acid; cited from earlier work

CN(C)CC(=O)O [DMG, N,N-dimethylglycine]
End BW ([1]; Barrow, DMG 500 ppm, mean ± SD): 23.4 ± 0.86
dG ([1]; Barrow, DMG 500 ppm, mean ± SD): 356 ± 20
FCRII + III ([1]; Barrow, excluding the first two weeks, DMG 500 ppm, mean ± SD): 1.71 ± 0.12
FCRII + III, DMG-effect ([1]; Barrow, excluding the first two weeks, vs control): −6.2%
FCR ([1]; Barrow, total growth period, DMG 500 ppm, mean ± SD): 1.80 ± 0.09
FCR, DMG-effect ([1]; Barrow, total growth period, vs control): −8.4%
End BW ([1]; Gilt, DMG 500 ppm, mean ± SD): 19.3 ± 1.64
dG ([1]; Gilt, DMG 500 ppm, mean ± SD): 271 ± 39
FCRII + III ([1]; Gilt, excluding the first two weeks, DMG 500 ppm, mean ± SD): 1.74 ± 0.09
FCRII + III, DMG-effect ([1]; Gilt, excluding the first two weeks, vs control): −8.9%
FCR ([1]; Gilt, total growth period, DMG 500 ppm, mean ± SD): 1.93 ± 0.16
FCR, DMG-effect ([1]; Gilt, total growth period, vs control): −3.6%
End BW, DMG-effect ([1]; Gilt, vs control): −7.0%
dG, DMG-effect ([1]; Gilt, vs control): −11.0%
dGI ([1]; barrows and gilts, daily growth day 0-14, DMG 500 mg/kg feed, mean ± SD): 94 ± 58 g/day
dGII ([1]; barrows and gilts, daily growth day 14-29, DMG 500 mg/kg feed, mean ± SD): 365 ± 65 g/day
dGIII ([1]; barrows and gilts, daily growth day 29-42, DMG 500 mg/kg feed, mean ± SD): 491 ± 118 g/day
dGI, DMG-effect ([1]; barrows and gilts, day 0-14, vs control): −7.0%
dGII, DMG-effect ([1]; barrows and gilts, day 14-29, vs control): +8.1%
dGIII, DMG-effect ([1]; barrows and gilts, day 29-42, vs control): +2.1%
End body weight ([1]; barrows and gilts, day 42, DMG 500 mg/kg feed, mean ± SD): 21.4 ± 2.46 kg
FCRII + III, DMG-effect ([1]; barrows and gilts, excluding the first two weeks, vs control): −7.6%
FCRII + III ([1]; barrows and gilts, growth period excluding the first two weeks, DMG 500 mg/kg feed, mean ± SD): 1.72 ± 0.10
improvement in feed conversion ratio (lower FCR) ([1]; barrows and gilts, growth period excluding the first two weeks, vs control, given unsigned): 7.6%
FCR (feed conversion ratio) ([1]; barrows and gilts, total growth period, DMG 500 mg/kg feed, mean ± SD): 1.87 and 1.87 ± 0.14
FCR, DMG-effect ([1]; barrows and gilts, total growth period, vs control): −5.9%
improvement in feed conversion ratio (lower FCR) ([1]; barrows and gilts, total growth period, vs control, given unsigned): 5.9%
Daily growth (dG) ([1]; barrows and gilts, total period day 0-42, DMG 500 mg/kg feed, mean ± SD): 314 ± 53 g/day
improvement in feed conversion ratio (lower FCR) ([1]; barrows, total growth period, vs control, given unsigned): 8.4%
improvement in feed conversion ratio (FCRII+III, lower) ([1]; gilts, growth period excluding the first two weeks, vs control, given unsigned): 8.9%
improvement in feed efficiency (lower FCR) ([1]; gilts, total growth period, vs control, only numerically, given unsigned): 3.6%
health of the animals during the experiment (clinical signs of disease) ([1]; pig, in vivo): remained healthy
body weight gain [2]: not an important impact
feed conversion rate [2]: decreased

C[N+](C)(C)CC(=O)O [betaine]
lung area damaged by mycoplasmal infection ([3]; 0.125% betaine in feed): significant reduction
growth rate and other performance characteristics, such as the feed conversion ratio ([3]; growing pigs exposed to mycoplasmal infections): improvements

CN(C)CC(=O)OC[C@@H](O)[C@@H](O)[C@H](O)[C@@H](O)C(=O)O [pangamic acid, 6-O-(dimethylaminoacetyl)-D-gluconic acid]
body weight gain [4]: reduction
feed conversion rate [4]: not affected
